“Also recorded” adds a separate entry of the source.
Key:
[1] = target: T1, GST-PIF/PDK1 complex (Homo sapiens, UniProt O15530); assay: Phosphorylation of GST-PKBα at Ser473 by GST-PIF/PDK1 (P-473 immunoblot); assay type: biochemical; conditions: lipid 10 μM in PtdCho/PtdSer vesicles, MgATP, 60 min 30° C.
T1 construct: endogenous in cells; host or cells: 293 cells transfected with pEBG2T GST-PIF; endogenous PDK1 co-purified on glutathione-Sepharose
Method: FIG. 5. The ability of GST-PIF to phosphorylate PKBα at Ser473 is dependent upon the presence of PDK1. GST-PIF purified from 293 cells, FIG. 2C (20 μg in 50 μl) was incubated with Protein G-Sepharose (10 μl) conjugated with either no antibody (control), MSK1 antibody A [40] (5 μg, non specific antibody), a PDK1 antibody raised against the whole protein (5 μg) or a PDK1 peptide antibody raised against the 16 C-terminal amino acid residues of PDK1 (5 μg, peptide antibody) in the presence or absence of the PDK1 C-terminal peptide immunogen (0.2 mM) to which this antibody was raised. After incubation on a shaking platform for 60 min at 4° C., the suspension was centrifuged and GST-PIF in the supernatant (2.0 μg) was incubated with GST-PKBα and MgATP for 60 min at 30° C. in the presence or absence of phospholipid vesicles containing 100 μM PtdCho, 100 μM PtdSer, and 10 μM sn-1-stearoyl-2-arachidonoyl-D-PtdIns(3,4,5)P3 (1,2-SAD-PtdIns(3,4,5)P3), or sn-1,2 di-palmitoyl-D-PtdIns(3,4,5)P3 (C16-PtdIns(3,4,5)P3) or sn-1,2 di-palmitoyl-D-PtdIns(3,4)P2 (C16-PtdIns(3,4)P2). The reactions were terminated by making the solutions 1% in SDS, and the samples were subjected to SDS/polyacylamide gel electrophoresis and immunoblotted using the P-Ser473 antibody. Identical results were obtained in 2 separate experiments (B) The wild type and mutant GST-PIF proteins (2.0 μg) used in FIG. 3 were incubated with GST-PKBα and MgATP for 60 min at 30° C. in the presence or absence of lipid vesicles containing 10 μM sn-1-stearoyl-2-arachidonoyl-D-PtdIns(3,4,5)P3 and the degree of phosphorylation of PKBα at Ser473 was established by immunoblotting. Similar results were obtained in 4 separate experiments using 2 different preparations of the wild type and mutant GST-PIF proteins.
FIG. 7. Specificity of phosphoinositide-dependent PIF/PDK1-induced phosphorylation of Thr308 and Ser473 of PKBα. GST-PKBα was incubated for 60 min at 30° C. with GST-PIF purified from 293 cells (which is associated with endogenous PDK1 see FIG. 3) (1.0 μg), MgATP and phospholipid vesicles containing 100 μM PtdCho, 100 μM PtdSer, and various PtdIns lipids (numbered 1-11, see below) all at a final concentration of 10 μM in the assay. In panel A the reactions were terminated by the addition of Triton X100 and the increase in specific activity of GST-S473D-PKBα (U/mg), determined, relative to a control incubation in which GST-PIF was omitted (±SEM for 6 determinations, two independent experiments). The basal activity of GST-S473D-PKBα was 3.5 U/mg. In Panel B the reactions were terminated by making the solutions 1% in SDS, the samples were subjected to SDS/polyacylamide gel electrophoresis and the extent of PKBα phosphorylation was established using the phospho-specific antibody that recognises PKBα phosphorylated at Ser 473. In B the results of 2 separate experiments with different preparations of lipid are shown. Lipid 1, Buffer control; Lipid 2, PtdIns 3P; Lipid 3, n-1,2-dipalmitoyl PtdIns(3,4)P2; Lipid 4, PtdIns(3,5)P2; Lipid 5, PtdIns(4,5)P2; Lipid 6, sn-1,2-dipalmitoyl D-PtdIns(3,4,5)P3; Lipid 7, rac-1,2-dilinoleoyl phosphatidyl D/L-myo-inositol 3,4,5trisphosphate; Lipid 8, sn-1-stearoyl, 2-arachidonoyl D-PtdIns(3,4,5,)P3; Lipid 9, sn-1-stearoyl, 2-arachidonoyl L-PtdIns(3,4,5,)P3; Lipid 10, sn-2-stearoyl, 3-arachidonoyl D-PtdIns(3,4,5,)P3; Lipid 11, sn-2-ste aroyl, 3-arachidonoyl L-PtdIns(3,4,5,)P3.
Phosphorylation of GST-PKBα by incubation with GST-PIF. In experiments in which the phosphorylation of PKBα was determined using the phospho-specific Ser473 PKBα antibodies, the incubations were identical to the Stage 1 described above except that the reactions were terminated by the addition of 1% (by mass) SDS and immunoblotting is carried out as described below. In experiments in which the sites of phosphorylation on PKBα are determined the incubations were identical to the Stage 1 described above except [γ^32P] ATP (1000-2000 cpm/pmol) was used instead of unlabelled ATP. […]

[2] = test system: PDK1; assay: Activation of GST-ΔPH-PKBα by PDK1 with or without PIF and phosphoinositide; assay type: biochemical; conditions: for rate at which GST-PIF/PDK1 complex activates GST-ΔPH-PKBα, presence versus absence of lipid: GST-PIF/PDK1 complex purified from 293 cells
Method: FIG. 8. Maximal activation of PKB by PDK1/PIF requires PtdIns(3,4,5)P3 to interact with both PKB and PDK1. […] The basal activity of GST-ΔPH-PKBα was 3.0 U/mg.
Measurement of PKBα activation after incubation with GST-PIF. This assay was carried out in 2 stages, as described previously; briefly, in the first, GST-PKBα was incubated with GST-PIF (or other indicated PDK1 proteins in the presence or absence of peptides) in the presence of MgATP and phospholipid vesicles.
In Stage 1, an 15 μl reaction mixture was set up containing 66.5 mM Tris/HCl pH 7.5, 0.13 mM EGTA, 0.13% (by vol) 2-mercaptoethanol, 3.3 μM PKI, 1.3 μM microcystin-LR, 13.3 mM Mg(Ac)2, 133 μM unlabelled ATP, 0.4 μM GST-PKBA, 133 μM PtdSer, 133 μM PtdCho in the presence or absence of 13.3 μM PtdIns(3,4,5)P3. The assay was initiated by the addition of 5 μl of 0.2 mg/ml GST-PIF (or other indicated proteins or peptides), after incubation for 30 min at 30° C., stage 2 of the assay was initiated by the addition of 30 μl of a mixture made up of Buffer B containing 2.5 μM PKI, 1 μM microcystin-LR, 10 mM Mg(Ac)2, 100 μM [γ^32P]ATP (200-400 cpm/pmol), 100 μM of the peptide RPRTAAF (SEQ ID NO:13) and 1.25% (by vol) Triton X-100. After 10 min at 30° C., the reactions were terminated by spotting the reaction mixture on to P81 phosphocellulose paper. The papers were washed in 75 mM phosphoric acid and analysed as described previously. A control reaction in which GST-PKBα was omitted was taken as the blank and was always less than 5% of the activity measured in the presence of GST-PKBα. The basal GST-PKBα activity is the activity measured in the absence of PDK1. 1 Unit of GST-PKBα activity was that amount of enzyme required to catalyse the phosphorylation of 1 nmol of the peptide RPRTAAF (SEQ ID NO:13) in 1 min. The assays were linear with time up to a final concentration of 3 U/ml of PDK1 activity in the assay.

T1 sequence (O15530 whole entry): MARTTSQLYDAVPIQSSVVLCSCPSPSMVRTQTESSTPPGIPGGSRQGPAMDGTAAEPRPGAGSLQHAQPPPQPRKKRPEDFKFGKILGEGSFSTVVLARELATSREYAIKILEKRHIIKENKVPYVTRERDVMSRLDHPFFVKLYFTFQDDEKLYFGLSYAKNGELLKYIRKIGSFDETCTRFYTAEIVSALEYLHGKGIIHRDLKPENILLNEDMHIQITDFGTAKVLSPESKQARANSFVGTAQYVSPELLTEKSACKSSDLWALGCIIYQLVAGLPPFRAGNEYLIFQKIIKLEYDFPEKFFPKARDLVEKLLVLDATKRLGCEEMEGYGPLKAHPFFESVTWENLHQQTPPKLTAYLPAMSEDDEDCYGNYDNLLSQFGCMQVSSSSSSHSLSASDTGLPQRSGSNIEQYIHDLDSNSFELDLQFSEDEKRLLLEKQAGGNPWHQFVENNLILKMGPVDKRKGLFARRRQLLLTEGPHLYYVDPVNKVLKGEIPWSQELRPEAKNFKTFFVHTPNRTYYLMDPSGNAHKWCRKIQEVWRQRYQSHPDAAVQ
T1 sequence (Q16513 908-984 partner): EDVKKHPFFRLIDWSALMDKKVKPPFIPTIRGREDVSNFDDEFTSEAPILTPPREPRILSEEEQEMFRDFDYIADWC

| Molecule | phosphorylation of GST-PKBα at Ser473 [1] | rate at which GST-PIF/PDK1 complex activates GST-ΔPH-PKBα, presence versus absence of lipid [2] | further results |
| --- | --- | --- | --- |
| CCCCC/C=C\C/C=C\CCCCCCCC(=O)OCC(COP(=O)(O)OC1C(O)C(OP(=O)(O)O)C(OP(=O)(O)O)C(OP(=O)(O)O)C1O)OC(=O)CCCCCCC/C=C\C/C=C\CCCCC (racemic) [Lipid 7, rac-1,2-dilinoleoyl phosphatidyl D/L-myo-inositol 3,4,5-trisphosphate] | may also be effective | – | – |
| CCCCCCCCCCCCCCCC(=O)OCC(COP(=O)(O)OC1C(O)C(O)C(OP(=O)(O)O)C(OP(=O)(O)O)C1O)OC(=O)CCCCCCCCCCCCCCC (stereo not drawn) [Lipid 3, sn-1,2-dipalmitoyl PtdIns(3,4)P2] | may also be effective | ~4 fold | phosphorylation of GST-PKBα at Ser473 ([1]; listed as PtdIns(3,4)P2): strongly phosphorylated |
| CCCCCCCCCCCCCCCC(=O)OC[C@H](COP(=O)(O)OC1[C@H](O)[C@H](OP(=O)(O)O)C(OP(=O)(O)O)[C@H](OP(=O)(O)O)[C@H]1O)OC(=O)CCCCCCCCCCCCCCC (stereo partly drawn) [Lipid 6, sn-1,2-dipalmitoyl D-PtdIns(3,4,5)P3] | may also be effective | – | – |
| CCCCC/C=C\C/C=C\C/C=C\C/C=C\CCCC(=O)O[C@H](COC(=O)CCCCCCCCCCCCCCCCC)COP(=O)(O)O[C@H]1[C@@H](O)[C@H](OP(=O)(O)O)[C@@H](OP(=O)(O)O)[C@H](OP(=O)(O)O)[C@H]1O [Lipid 8, sn-1-stearoyl, 2-arachidonoyl D-PtdIns(3,4,5,)P3] | highly effective; also recorded: may be capable of enhancing | ~4 fold | phosphorylation of GST-PKBα at Ser473 ([1]; listed as PtdIns(3,4,5)P3): strongly phosphorylated; enhancement of the rate at which PDK1 complexed to PIF activates GST-ΔPH-PKBα ([2]; His-PDK1/GST-PIF*, presence versus absence of lipid): 3 to 4 fold; rate at which His-PDK1 activates GST-ΔPH-PKBα, presence versus absence of lipid ([2]; His-PDK1 alone, no PIF): the same |
| CCCCC/C=C\C/C=C\C/C=C\C/C=C\CCCC(=O)O[C@H](COC(=O)CCCCCCCCCCCCCCCCC)COP(=O)(O)OC1[C@@H](O)[C@H](OP(=O)(O)O)C(OP(=O)(O)O)[C@H](OP(=O)(O)O)[C@H]1O (stereo partly drawn) [Lipid 9, sn-1-stearoyl, 2-arachidonoyl L-PtdIns(3,4,5,)P3] | failed to induce a significant phosphorylation; also recorded: may not induce | – | – |
| CCCCC/C=C\C/C=C\C/C=C\C/C=C\CCCC(=O)OC[C@@H](COP(=O)(O)O[C@H]1[C@@H](O)[C@H](OP(=O)(O)O)[C@@H](OP(=O)(O)O)[C@H](OP(=O)(O)O)[C@H]1O)OC(=O)CCCCCCCCCCCCCCCCC [Lipid 10, sn-2-stearoyl, 3-arachidonoyl D-PtdIns(3,4,5,)P3] | highly effective; also recorded: may be capable of enhancing | – | – |
| PtdIns(3,5)P2 [Lipid 4] | did not induce | – | – |
| PtdIns(4,5)P2 [Lipid 5] | did not induce | do not increase | – |
| PtdIns-3P [Lipid 2] | did not induce | do not increase | – |
| sn-2-ste aroyl, 3-arachidonoyl L-PtdIns(3,4,5,)P3 [Lipid 11] | failed to induce a significant phosphorylation; also recorded: may not induce | – | – |

From patent publication US20070196883A1, “ENZYME” (UNIVERSITY OF DUNDEE, priority 1999, published 2007)
